Experimental data: patent US11046657B2, “Pyrimidinone derivatives and uses thereof to neutralize the biological activity of chemokines” (Centre National de la Recherche Scientifique (CNRS), priority 2016, dated 2021)

Assays:
CXCL12 to CXCR7 = CXCL12 to CXCR7 (Homo sapiens, UniProt P48061); conditions: cited from earlier work
[1] = test system: human peripheral blood CD4+ lymphocytes; conditions: cited from earlier work
[2] = test system: Balb/c mice sensitized to ovalbumin; conditions: mouse model of airway allergic eosinophilic inflammation; cited from earlier work
CXCL12 = conditions: cited from earlier work
CXCL12 to CXCR4 = CXCL12 to CXCR4 (Homo sapiens, UniProt P48061); conditions: cited from earlier work
CXCL12 to CXCR4, sequence (P48061 22-89 limits assumed): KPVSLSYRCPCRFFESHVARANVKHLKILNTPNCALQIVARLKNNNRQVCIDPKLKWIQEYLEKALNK

CCL22 = target: T1, CCL22 (Homo sapiens, UniProt O00626); experiment: Selectivity towards chemokine CCL22; conditions: 5 μM
T1 sequence (O00626 25-93): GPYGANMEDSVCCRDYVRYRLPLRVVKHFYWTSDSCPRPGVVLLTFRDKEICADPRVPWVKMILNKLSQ
Protocol: Furthermore, the selectivity of (1) was also evaluated towards two other chemokines, namely CCL17 and CCL22, with no activity at 5 μM (data not shown).

CXCL12 to CXCR7, sequence (P48061 22-89 limits assumed): as the sequence (P48061 22-89 limits assumed) above

Row | SMILES | Binding of CXCL12 to CXCR7 (CXCL12 to CXCR7) | Chemotaxis of human peripheral blood CD4+ lymphocytes [1] | Inflammatory infiltration, in particular of eosinophils [2] | Intracellular calcium responses (CXCL12) | Binding of CXCL12 to CXCR4 (CXCL12 to CXCR4) | Activity towards CCL22 (CCL22)
1 | COc1cc(/C=C/C(=O)c2ccc(Cl)cc2)ccc1O [Chalcone-4, (E)-1-(4-Chlorophenyl)-3-(4-hydroxy-3-methoxyphenyl)prop-2-en-1-one, reference compound] | inhibits | blocks chemotaxis | inhibits inflammatory infiltration | inhibits intracellular calcium responses | inhibits | –
2 | COc1cc(-c2cc(-c3ccc(Cl)cc3)nc(=O)[nH]2)ccc1O [compound (1), 4-(4-Chlorophenyl)-6-(4-hydroxy-3-methoxyphenyl)pyrimidin-2(1H)-one] | – | – | – | – | – | no activity
